Measurements taken from patent publication US20170298073A1, “SALTS, CO-CRYSTALS, AMORPHOUS FORMS, AND CRYSTALLINE FORMS OF A CO-ACTIVATOR-ASSOCIATED ARGININE METHYLTRANSFERASE 1 (CARM1) INHIBITOR” (Epizyme, Inc, priority 2014, published 2017).
≈ marks a conversion by molar mass, not a printed value.

Assay: Thermodynamic solubility at room temperature
Assay type: physicochemical
Conditions: 25 °C, thermodynamic from solid
Procedure: In an exemplary experiment, the thermodynamic solubilities of the solid forms described herein were determined at room temperature (RT, 25±3° C.).

solubility (organic solvent or mixture, solvent 1,4-Dioxane): > 40 mg/mL
solubility (organic solvent or mixture, solvent 2-Methyl-tetrahydrofuran): > 50 mg/mL
solubility (organic solvent or mixture, solvent Acetic acid): > 44 mg/mL
solubility (organic solvent or mixture, solvent Acetone): > 48 mg/mL
solubility (organic solvent or mixture, solvent Acetonitrile): > 42 mg/mL
solubility (organic solvent or mixture, solvent CHCl3): > 38 mg/mL
solubility (organic solvent or mixture, solvent Dichloromethane): > 36 mg/mL
solubility (organic solvent or mixture, solvent Dimethyl sulfoxide): > 38 mg/mL
solubility (organic solvent or mixture, solvent Dimethylacetamide): > 42 mg/mL
solubility (organic solvent or mixture, solvent EtOAc): > 50 mg/mL
solubility (organic solvent or mixture, solvent EtOH): > 40 mg/mL
solubility (organic solvent or mixture, solvent Isopropanol): > 36 mg/mL
solubility (organic solvent or mixture, solvent Isopropyl acetate): > 36 mg/mL
solubility (organic solvent or mixture, solvent MeOH): > 38 mg/mL
solubility (organic solvent or mixture, solvent Methyl isobutyl ketone): > 34 mg/mL
solubility (organic solvent or mixture, solvent Methyl-tert-butyl ether): < 1.1 mg/mL
solubility (organic solvent or mixture, solvent N-methyl-2-pyrrolidone): > 44 mg/mL
solubility (organic solvent or mixture, solvent THF): > 36 mg/mL
solubility (organic solvent or mixture, solvent Toluene): > 38 mg/mL
solubility (organic solvent or mixture, solvent n-Heptane): < 1.1 mg/mL
solubility (organic solvent or mixture, solvent n-Heptane/THF (1:1 by volume)): 14 to 21 mg/mL (≈ 23.9 to 35.9 mM)
solubility (organic solvent or mixture, solvent n-Heptane/THF (1:2 by volume)): > 42 mg/mL
solubility (organic solvent or mixture, solvent n-Heptane/THF (1:3 by volume)): > 40 mg/mL
solubility (organic solvent or mixture, solvent n-Heptane/THF (2:1 by volume)): 2.6 to 3 mg/mL (≈ 4.44 to 5.13 mM)
solubility (organic solvent or mixture, solvent n-Heptane/THF (4:1 by volume)): < 1.6 mg/mL
solubility (water, solvent H2O): < 1.1 mg/mL
SMILES: CNC[C@@H](O)COc1ccc(Cl)c(-c2nc(-c3c(C)noc3C)c(C)c(N3CC4(CCN(C(=O)OC)CC4)C3)n2)c1 [Form A]
